Test results from US20020137929A1, “1 - (3-heterocyclylphenyl) isothiourea, -isourea, -guanidine and -amidine herbicidal agents” (Intellectual Property Department, BASF Aktiengesellschaft, priority 1998, published 2002).

Experiments:
CYPIR (Rice Flatsedge) = assay: Postemergence weed control under flooded paddy conditions; assay type: in vivo, Cyperus iria; conditions: postemergence weeds, rated 3 to 4 weeks after treatment
Summary of the method: (§1)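 Injury ratings (0–9 scale covering stand, vigor, malformation, size, chlorosis and overall appearance versus control) were made three to four weeks after treatment. Test material, about 0.0313 to 0.500 kg/ha a.i. in 50/50 v/v aqueous/acetone, was added to flood water 1.5 to 3 cm deep over 3 to 5 cm weeds and 1.5 to 2.5 leaf rice.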

[1] = system: SAGPY (Arrowhead (Pygmaea)); assay: Preemergence weed control under flooded paddy conditions; assay type: in vivo, Sagittaria pygmaea; conditions: rated 3-4 weeks after treatment
Summary of the method: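 Using flooded silt loam (water 1.5 to 3 cm deep), seeds sown in the top 0.5 cm were exposed preemergence to compound pipetted into the flood at about 0.0313 to 0.500 kg/ha. Effects were scored 0-9 by eye three to four weeks later.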

[2] = system: GLXMAW (Soybean, Williams); assay: Postemergence herbicidal evaluation; assay type: in vivo, Glycine max, (L.) Merr. cv Williams; conditions: postemergence
Summary of the method: (§2)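 Seedlings grown about two weeks were sprayed at 40 psi with compound dispersed in 50/50 acetone/water plus 0.5% TWEEN 20, at about 0.0156 to 0.500 kg/ha. Plants were kept in the greenhouse and scored 4–5 weeks later on a 0–9 visual scale against untreated controls.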

ORYSAT (Rice, Tebonnet) = assay: Postemergence herbicidal evaluation; assay type: in vivo, Oryza sativa, (L.) Tebonnet; conditions: postemergence
Summary of the method: as §2

AMBEL (Ragweed, Common) = assay: Postemergence herbicidal evaluation; assay type: in vivo, Ambrosia artemisifolia; conditions: postemergence
Summary of the method: as §2

ECHCG (Barnyardgrass) = assay: Postemergence herbicidal evaluation; assay type: in vivo, Echinochloa crus-galli; conditions: postemergence
Summary of the method: as §2

CASOB (Sicklepod) = assay: Preemergence herbicidal evaluation; assay type: in vivo, Cassia obtusifolia; conditions: rated 4-5 weeks after treatment
Summary of the method: (§3)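 Visual 0-9 rating vs control (stand, vigor, malformation, size, chlorosis, overall appearance), scored 4-5 wk after spraying. Seeded soil cups were treated preemergence with compound in aqueous acetone, ~0.0156-0.500 kg/ha equivalent.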

ABUTH (Velvetleaf) [3] = assay: Postemergence herbicidal evaluation; assay type: in vivo, Abutilon theophrasti; conditions: postemergence
Summary of the method: as §2

SETVI (Foxtail, Green) [4] = assay: Postemergence herbicidal evaluation; assay type: in vivo, Setaria viridis; conditions: postemergence
Summary of the method: as §2

[5] = system: SAGPY (Arrowhead (Pygmaea)); assay: Postemergence weed control under flooded paddy conditions; assay type: in vivo, Sagittaria pygmaea; conditions: postemergence weeds, rated 3 to 4 weeks after treatment
Summary of the method: as §1

ABUTH (Velvetleaf) [6] = assay: Preemergence herbicidal evaluation; assay type: in vivo, Abutilon theophrasti; conditions: rated 4-5 weeks after treatment
Summary of the method: as §3

SETVI (Foxtail, Green) [7] = assay: Preemergence herbicidal evaluation; assay type: in vivo, Setaria viridis; conditions: rated 4-5 weeks after treatment
Summary of the method: as §3

[8] = system: TRZAWR (Wheat, Winter, cv Riband); assay: Postemergence herbicidal evaluation; assay type: in vivo, Triticum aestivum; conditions: postemergence
Summary of the method: as §2

COC(=O)[C@@H](Cc1ccccc1)N1C(=O)CSC1=Nc1cc(-n2c(=O)cc(C(F)(F)F)n(C)c2=O)c(F)cc1Cl [Compound 74, Methyl α-benzyl-2-{{2-chloro-5-[3,6-dihydro-3-methyl-2,6-dioxo-4-(trifluoromethyl)-1(2H)-pyrimidinyl]-4-fluorophenyl}imino}-4-oxo-3-thiazolidineacetate, D-]
3.0: SAGPY herbicidal effect rating ([1]; 0.0313 kg/ha) | SAGPY herbicidal effect rating ([1]; 0.0625 kg/ha) | SAGPY herbicidal effect rating ([1]; 0.1250 kg/ha) | Herbicidal rating SAGPY ([5]; Rate 0.0313 kg/ha) | Herbicidal rating SAGPY ([5]; Rate 0.0625 kg/ha) | Herbicidal rating SAGPY ([5]; Rate 0.1250 kg/ha)
4.0: Preemergence herbicidal rating ABUTH (ABUTH (Velvetleaf) [6]; rate 0.0313 kg/ha) | Preemergence herbicidal rating SETVI (SETVI (Foxtail, Green) [7]; rate 0.1250 kg/ha)
2.0: SETVI herbicidal rating (SETVI (Foxtail, Green) [4]; rate 0.0630 kg/ha)
0.0: Herbicidal rating CYPIR (CYPIR (Rice Flatsedge); Rate 0.0313 kg/ha) | Herbicidal rating CYPIR (CYPIR (Rice Flatsedge); Rate 0.0625 kg/ha) | Herbicidal rating CYPIR (CYPIR (Rice Flatsedge); Rate 0.1250 kg/ha) | Herbicidal rating CYPIR (CYPIR (Rice Flatsedge); Rate 0.2500 kg/ha) | Preemergence herbicidal rating CASOB (CASOB (Sicklepod); rate 0.0156 kg/ha) | Preemergence herbicidal rating CASOB (CASOB (Sicklepod); rate 0.0313 kg/ha) | Preemergence herbicidal rating CASOB (CASOB (Sicklepod); rate 0.0625 kg/ha) | Preemergence herbicidal rating CASOB (CASOB (Sicklepod); rate 0.1250 kg/ha) | Preemergence herbicidal rating CASOB (CASOB (Sicklepod); rate 0.2500 kg/ha) | Preemergence herbicidal rating ABUTH (ABUTH (Velvetleaf) [6]; rate 0.0156 kg/ha) | Preemergence herbicidal rating SETVI (SETVI (Foxtail, Green) [7]; rate 0.0156 kg/ha) | Preemergence herbicidal rating SETVI (SETVI (Foxtail, Green) [7]; rate 0.0313 kg/ha)
5.0: GLXMAW herbicidal rating ([2]; rate 0.0315 kg/ha)
1.0: ECHCG herbicidal rating (ECHCG (Barnyardgrass); rate 0.0158 kg/ha) | ECHCG herbicidal rating (ECHCG (Barnyardgrass); rate 0.0315 kg/ha) | ECHCG herbicidal rating (ECHCG (Barnyardgrass); rate 0.0630 kg/ha) | SETVI herbicidal rating (SETVI (Foxtail, Green) [4]; rate 0.0158 kg/ha) | SETVI herbicidal rating (SETVI (Foxtail, Green) [4]; rate 0.0315 kg/ha) | Preemergence herbicidal rating SETVI (SETVI (Foxtail, Green) [7]; rate 0.0625 kg/ha)
4.5: ORYSAT herbicidal rating (ORYSAT (Rice, Tebonnet); rate 0.0315 kg/ha) | TRZAWR herbicidal rating ([8]; rate 0.0315 kg/ha)
5.5: GLXMAW herbicidal rating ([2]; rate 0.0158 kg/ha) | ORYSAT herbicidal rating (ORYSAT (Rice, Tebonnet); rate 0.0630 kg/ha)
6.0: TRZAWR herbicidal rating ([8]; rate 0.0630 kg/ha)
3.5: ORYSAT herbicidal rating (ORYSAT (Rice, Tebonnet); rate 0.0158 kg/ha) | TRZAWR herbicidal rating ([8]; rate 0.0158 kg/ha)
9.0: SAGPY herbicidal effect rating ([1]; 0.2500 kg/ha) | AMBEL herbicidal rating (AMBEL (Ragweed, Common); rate 0.0158 kg/ha) | AMBEL herbicidal rating (AMBEL (Ragweed, Common); rate 0.0315 kg/ha) | AMBEL herbicidal rating (AMBEL (Ragweed, Common); rate 0.0630 kg/ha) | ABUTH herbicidal rating (ABUTH (Velvetleaf) [3]; rate 0.0158 kg/ha) | ABUTH herbicidal rating (ABUTH (Velvetleaf) [3]; rate 0.0315 kg/ha) | ABUTH herbicidal rating (ABUTH (Velvetleaf) [3]; rate 0.0630 kg/ha) | Herbicidal rating SAGPY ([5]; Rate 0.2500 kg/ha) | Preemergence herbicidal rating ABUTH (ABUTH (Velvetleaf) [6]; rate 0.0625 kg/ha) | Preemergence herbicidal rating ABUTH (ABUTH (Velvetleaf) [6]; rate 0.1250 kg/ha) | Preemergence herbicidal rating ABUTH (ABUTH (Velvetleaf) [6]; rate 0.2500 kg/ha) | Preemergence herbicidal rating SETVI (SETVI (Foxtail, Green) [7]; rate 0.2500 kg/ha)
6.5: GLXMAW herbicidal rating ([2]; rate 0.0630 kg/ha)

C[C@@H](C(=O)OC(C)(C)C)N1C(=O)CSC1=Nc1cc(-n2c(=O)cc(C(F)(F)F)n(C)c2=O)c(F)cc1Cl [Compound 75, tert-Butyl 2-{{2-chloro-5-[3,6-dihydro-3-methyl-2,6-dioxo-4-(trifluoromethyl)-1(2H)-pyrimidinyl]-4-fluorophenyl}imino}-α-methyl-4-oxo-3-thiazolidineacetate, L-]
2.5: ORYSAT herbicidal rating (ORYSAT (Rice, Tebonnet); rate 0.0315 kg/ha) | ORYSAT herbicidal rating (ORYSAT (Rice, Tebonnet); rate 0.0630 kg/ha) | TRZAWR herbicidal rating ([8]; rate 0.0158 kg/ha) | TRZAWR herbicidal rating ([8]; rate 0.0315 kg/ha) | TRZAWR herbicidal rating ([8]; rate 0.0630 kg/ha)
6.0: Herbicidal rating CYPIR (CYPIR (Rice Flatsedge); Rate 0.1250 kg/ha) | Herbicidal rating CYPIR (CYPIR (Rice Flatsedge); Rate 0.2500 kg/ha)
1.0: ECHCG herbicidal rating (ECHCG (Barnyardgrass); rate 0.0158 kg/ha) | ECHCG herbicidal rating (ECHCG (Barnyardgrass); rate 0.0315 kg/ha) | ECHCG herbicidal rating (ECHCG (Barnyardgrass); rate 0.0630 kg/ha) | Preemergence herbicidal rating CASOB (CASOB (Sicklepod); rate 0.1250 kg/ha) | Preemergence herbicidal rating CASOB (CASOB (Sicklepod); rate 0.2500 kg/ha) | SETVI herbicidal rating (SETVI (Foxtail, Green) [4]; rate 0.0158 kg/ha)
4.0: GLXMAW herbicidal rating ([2]; rate 0.0158 kg/ha)
0.0: Herbicidal rating CYPIR (CYPIR (Rice Flatsedge); Rate 0.0313 kg/ha) | Herbicidal rating CYPIR (CYPIR (Rice Flatsedge); Rate 0.0625 kg/ha) | SAGPY herbicidal effect rating ([1]; 0.0313 kg/ha) | SAGPY herbicidal effect rating ([1]; 0.0625 kg/ha) | SAGPY herbicidal effect rating ([1]; 0.1250 kg/ha) | Preemergence herbicidal rating CASOB (CASOB (Sicklepod); rate 0.0156 kg/ha) | Preemergence herbicidal rating CASOB (CASOB (Sicklepod); rate 0.0313 kg/ha) | Preemergence herbicidal rating CASOB (CASOB (Sicklepod); rate 0.0625 kg/ha) | Herbicidal rating SAGPY ([5]; Rate 0.0313 kg/ha) | Herbicidal rating SAGPY ([5]; Rate 0.0625 kg/ha) | Herbicidal rating SAGPY ([5]; Rate 0.1250 kg/ha) | Preemergence herbicidal rating ABUTH (ABUTH (Velvetleaf) [6]; rate 0.0156 kg/ha) | Preemergence herbicidal rating ABUTH (ABUTH (Velvetleaf) [6]; rate 0.0313 kg/ha) | Preemergence herbicidal rating SETVI (SETVI (Foxtail, Green) [7]; rate 0.0156 kg/ha) | Preemergence herbicidal rating SETVI (SETVI (Foxtail, Green) [7]; rate 0.0313 kg/ha) | Preemergence herbicidal rating SETVI (SETVI (Foxtail, Green) [7]; rate 0.0625 kg/ha)
9.0: AMBEL herbicidal rating (AMBEL (Ragweed, Common); rate 0.0630 kg/ha) | ABUTH herbicidal rating (ABUTH (Velvetleaf) [3]; rate 0.0158 kg/ha) | ABUTH herbicidal rating (ABUTH (Velvetleaf) [3]; rate 0.0315 kg/ha) | ABUTH herbicidal rating (ABUTH (Velvetleaf) [3]; rate 0.0630 kg/ha) | Preemergence herbicidal rating ABUTH (ABUTH (Velvetleaf) [6]; rate 0.0625 kg/ha) | Preemergence herbicidal rating ABUTH (ABUTH (Velvetleaf) [6]; rate 0.1250 kg/ha) | Preemergence herbicidal rating ABUTH (ABUTH (Velvetleaf) [6]; rate 0.2500 kg/ha) | Preemergence herbicidal rating SETVI (SETVI (Foxtail, Green) [7]; rate 0.1250 kg/ha) | Preemergence herbicidal rating SETVI (SETVI (Foxtail, Green) [7]; rate 0.2500 kg/ha)
4.5: GLXMAW herbicidal rating ([2]; rate 0.0315 kg/ha)
7.0: AMBEL herbicidal rating (AMBEL (Ragweed, Common); rate 0.0158 kg/ha)
2.0: ORYSAT herbicidal rating (ORYSAT (Rice, Tebonnet); rate 0.0158 kg/ha)
5.0: GLXMAW herbicidal rating ([2]; rate 0.0630 kg/ha) | AMBEL herbicidal rating (AMBEL (Ragweed, Common); rate 0.0315 kg/ha) | SETVI herbicidal rating (SETVI (Foxtail, Green) [4]; rate 0.0315 kg/ha)
3.0: SAGPY herbicidal effect rating ([1]; 0.2500 kg/ha) | SETVI herbicidal rating (SETVI (Foxtail, Green) [4]; rate 0.0630 kg/ha) | Herbicidal rating SAGPY ([5]; Rate 0.2500 kg/ha)
